In patent US20260078103A1, “ISOQUINOLONES AS PI3K INHIBITORS” (OnKure, Inc., priority 2022, published 2026):
pEC50, pIC50: −log10 of the molar value. Read-outs that look alike come from different tables or passages of the source.

Assays:
Format in all cases: cell-based
[1] = tested on: phosphorylation of AKT (pAKT) in SKBR3 cells express WT PI3Ka; test: In vitro cell pAKT (Ser473) HTRF, SKBR3 cells
Summary of the method: (§1)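 Cells seeded on plates pre-stamped with 10-point compound dilutions, then grown 6 h at 37 °C (T47D in RPMI/10% FBS/insulin; SKBR3 in McCoy's 5a/10% FBS). Lysates read for pAKT Ser473 by HTRF after overnight antibody incubation. Inhibition normalised to 0.1% DMSO and 10 uM alpelisib; IC50 by four-parameter fit.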

[2] = tested on: T47D cells expressing mutant PI3Ka (H1047R); test: In vitro cell proliferation, T47D cells (CellTiter-Glo); conditions: inhibition of proliferation, read-out: Avg T-47D EC50
Summary of the method: (§2)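 T47D (PI3Kα H1047R; RPMI, 10% FBS, insulin 0.2 units/mL) or SKBR3 (WT PI3Kα; McCoys 5a, 10% FBS) cells seeded at 1,500 cells/well on 10-point compound dilutions, grown 72 h at 37 °C. CellTiter-Glo luminescence; inhibition normalised to 0.1% DMSO and 10 uM alpelisib, EC50 from four-parameter fit.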

[3] = tested on: phosphorylation of AKT (pAKT) in T47D cells expressing mutant PI3Ka (H1047R); test: In vitro cell pAKT (Ser473) HTRF, T47D cells
Summary of the method: as §1

[4] = tested on: SKBR3 cells express WT PI3Ka; test: In vitro cell proliferation, SKBR3 cells (CellTiter-Glo); conditions: inhibition of proliferation
Summary of the method: as §2

[5] = Homo sapiens, SK-BR-3, 6 h, cellular pAKT
[6] = Homo sapiens, T47D, 6 h, cellular pAKT, T47D cells, mutant PI3Ka (H1047R), 6 hours, read-out: Avg T-47D IC50
[7] = cellular pAKT, T47D cells, mutant PI3Ka (H1047R), 6 hours, read-out: Avg T-47D IC50
[8] = Homo sapiens, SK-BR-3, cellular pAKT, 6 hours
[9] = Homo sapiens, T47D, 6 h, read-out: Avg T-47D IC50, cellular pAKT, T47D cells, mutant PI3Ka (H1047R), 6 hours

Row | Structure (SMILES) | pIC50 [1, 5] | pEC50 ([2]; Homo sapiens, T47D, 72 h) | pIC50 [3, 6] | pEC50 ([4]; Homo sapiens, SK-BR-3, 72 h) | pEC50 ([2]; 72 hours) | pIC50 [3, 7] | pIC50 ([1]; cellular pAKT, 6 hours) | pEC50 ([4]; 72 hours) | pIC50 [1, 8] | pIC50 [3, 9]
1 | Cc1cc(C(C)Nc2ccccc2C(=O)O)c2cc(-c3cc4cc(F)ccc4[nH]3)n(C)c(=O)c2c1 (centres unmarked) [Example 7, 2-((1-(3-(5-fluoro-1H-indol-2-yl)-2,7-dimethyl-1-oxo-1,2-dihydroisoquinolin-5-yl)ethyl)amino)benzoic acid] | < 4.82 | 4.82 to 5.70 | 5.70 to 6.30 | < 4.82 | – | – | – | – | – | –
2 | Cc1cc(C(C)Nc2ccccc2C(=O)O)c2cc(N3C[C@@H]4[C@@H](C#N)[C@@H]4C3)n(C)c(=O)c2c1 (stereo partly drawn) [Example 14, 2-((1-(3-((1R,5S,6r)-6-cyano-3-azabicyclo[3.1.0]hexan-3-yl)-2,7-dimethyl-1-oxo-1,2-dihydroisoquinolin-5-yl)ethyl)amino)benzoic acid] | < 4.82 | – | – | < 4.82 | 6.30 to 9.00 | 6.30 to 9.00 | – | – | – | –
3 | Cc1cc(C(C)Nc2ccccc2C(=O)O)c2cc(N3C[C@@H]4[C@@H](C#N)[C@@H]4C3)n(C)c(=O)c2c1 (stereo partly drawn) [Example 15, 2-((1-(3-((1R,5S,6r)-6-cyano-3-azabicyclo[3.1.0]hexan-3-yl)-2,7-dimethyl-1-oxo-1,2-dihydroisoquinolin-5-yl)ethyl)amino)benzoic acid] | – | – | – | – | 5.70 to 6.30 | 4.82 to 5.70 | < 4.82 | < 4.82 | – | –
4 | Cc1cc([C@@H](C)Nc2ccc(Cl)nc2C(=O)O)c2cc(N3CCN(c4ccc(F)cc4)CC3)n(C)c(=O)c2c1 [Example 24, (R)-6-chloro-3-((1-(3-(4-(4-fluorophenyl)piperazin-1-yl)-2,7-dimethyl-1-oxo-1,2-dihydroisoquinolin-5-yl)ethyl)amino)picolinic acid] | – | 6.30 to 9.00 | – | 4.82 to 5.70 | – | – | – | – | 4.82 to 5.70 | 6.30 to 9.00
5 | Cc1cc([C@@H](C)Nc2ccc(Cl)nc2C(=O)O)c2cc(N3CCN(Cc4ccc(F)cc4)CC3)n(C)c(=O)c2c1 [Example 25, (R)-6-chloro-3-((1-(3-(4-(4-fluorobenzyl)piperazin-1-yl)-2,7-dimethyl-1-oxo-1,2-dihydroisoquinolin-5-yl)ethyl)amino)picolinic acid] | 4.82 to 5.70 | 6.30 to 9.00 | 6.30 to 9.00 | 4.82 to 5.70 | – | – | – | – | – | –
6 | Cc1cc([C@@H](C)Nc2ccc(Cl)nc2C(=O)O)c2cc(-c3ccc(-c4ccc(F)cc4)nc3)n(C)c(=O)c2c1 [Example 26, (R)-6-chloro-3-((1-(3-(6-(4-fluorophenyl)pyridin-3-yl)-2,7-dimethyl-1-oxo-1,2-dihydroisoquinolin-5-yl)ethyl)amino)picolinic acid] | 4.82 to 5.70 | 6.30 to 9.00 | 6.30 to 9.00 | 4.82 to 5.70 | – | – | – | – | – | –
7 | Cc1cc([C@@H](C)Nc2ccc(Cl)nc2C(=O)O)c2cc(C3=CCN(CC(F)(F)F)CC3)n(C)c(=O)c2c1 [Example 27] | 4.82 to 5.70 | 6.30 to 9.00 | 6.30 to 9.00 | 4.82 to 5.70 | – | – | – | – | – | –
8 | CCn1c(N2CCC(C)(C)CC2)cc2c(C(C)Nc3ccccc3C(=O)O)cc(C)cc2c1=O (centres unmarked) [Example 29, 2-((1-(3-(4,4-dimethylpiperidin-1-yl)-2-ethyl-7-methyl-1-oxo-1,2-dihydroisoquinolin-5-yl)ethyl)amino)benzoic acid] | – | 4.82 to 5.70 | – | < 4.82 | – | – | – | – | < 4.82 | < 4.82
9 | Cc1cc([C@@H](C)Nc2ccccc2C(=O)O)c2cc(SCc3ccccc3)n(C)c(=O)c2c1 [Example 34, (R)-2-((1-(3-(benzylthio)-2,7-dimethyl-1-oxo-1,2-dihydroisoquinolin-5-yl)ethyl)amino)benzoic acid] | – | 6.30 to 9.00 | – | < 4.82 | – | – | – | – | < 4.82 | 6.30 to 9.00
10 | C[C@@H](Nc1cccc(F)c1C(=O)O)c1cc(F)cc2c(=O)n(C)c(C34CC(C(F)(F)F)(C3)C4)cc12 [Example 39, (R)-2-fluoro-6-((1-(7-fluoro-2-methyl-1-oxo-3-(3-(trifluoromethyl)bicyclo[1.1.1]pentan-1-yl)-1,2-dihydroisoquinolin-5-yl)ethyl)amino)benzoic acid] | < 4.82 | 6.30 to 9.00 | 6.30 to 9.00 | < 4.82 | – | – | – | – | – | –
11 | Cc1cc([C@@H](C)Nc2ccccc2C(=O)O)c2cc(OCC(C)C)n(C)c(=O)c2c1 [Example 40, (R)-2-((1-(3-isobutoxy-2,7-dimethyl-1-oxo-1,2-dihydroisoquinolin-5-yl)ethyl)amino)benzoic acid] | < 4.82 | 5.70 to 6.30 | 6.30 to 9.00 | < 4.82 | – | – | – | – | – | –
12 | Cc1cc([C@@H](C)Nc2ccc(F)cc2C(=O)O)c2c(F)c(N3CCN(CC(F)(F)F)CC3)n(C)c(=O)c2c1 [Example 41, (R)-5-fluoro-2-((1-(4-fluoro-2,7-dimethyl-1-oxo-3-(4-(2,2,2-trifluoroethyl)piperazin-1-yl)-1,2-dihydroisoquinolin-5-yl)ethyl)amino)benzoic acid] | < 4.82 | 6.30 to 9.00 | 6.30 to 9.00 | 4.82 to 5.70 | – | – | – | – | – | –
13 | C[C@@H](Nc1ccccc1C(=O)O)c1cc(F)cc2c(=O)n(C)c(-c3cnc(-c4cc(=O)n(C)cc4F)c(F)c3)cc12 [Example 42, (R)-2-((1-(3-(3,5′-difluoro-1′-methyl-2′-oxo-1′,2′-dihydro-[2,4′-bipyridin]-5-yl)-7-fluoro-2-methyl-1-oxo-1,2-dihydroisoquinolin-5-yl)ethyl)amino)benzoic acid] | < 4.82 | 5.70 to 6.30 | 5.70 to 6.30 | < 4.82 | – | – | – | – | – | –
14 | Cc1cc([C@@H](C)Nc2ccccc2C(=O)O)c2cc(C3CC3)n(C)c(=O)c2c1 [Example 43, (R)-2-((1-(3-cyclopropyl-2,7-dimethyl-1-oxo-1,2-dihydroisoquinolin-5-yl)ethyl)amino)benzoic acid] | < 4.82 | 6.30 to 9.00 | 6.30 to 9.00 | < 4.82 | – | – | – | – | – | –
15 | CCON1CC2CCC(C1)N2c1cc2c([C@@H](C)Nc3ccccc3C(=O)O)cc(F)cc2c(=O)n1C [Example 44, 2-(((1R)-1-(3-(3-ethoxy-3,8-diazabicyclo[3.2.1]octan-8-yl)-7-fluoro-2-methyl-1-oxo-1,2-dihydroisoquinolin-5-yl)ethyl)amino)benzoic acid] | 4.82 to 5.70 | 6.30 to 9.00 | 6.30 to 9.00 | 4.82 to 5.70 | – | – | – | – | – | –
16 | C[C@@H](Nc1ccccc1C(=O)O)c1cc(F)cc2c(=O)n(C)c(-c3cnc(C4(C5CC5)CC4)nc3)cc12 [Example 47, (R)-2-((1-(3-(2-([1,1′-bi(cyclopropan)]-1-yl)pyrimidin-5-yl)-7-fluoro-2-methyl-1-oxo-1,2-dihydroisoquinolin-5-yl)ethyl)amino)benzoic acid] | < 4.82 | 6.30 to 9.00 | 6.30 to 9.00 | < 4.82 | – | – | – | – | – | –
17 | C[C@@H](Nc1ccccc1C(=O)O)c1cc(F)cc2c(=O)n(C)c(-c3cnc(Oc4cnn(C(F)F)c4)c(F)c3)cc12 [Example 48, (R)-2-((1-(3-(6-((1-(difluoromethyl)-1H-pyrazol-4-yl)oxy)-5-fluoropyridin-3-yl)-7-fluoro-2-methyl-1-oxo-1,2-dihydroisoquinolin-5-yl)ethyl)amino)benzoic acid] | < 4.82 | 5.70 to 6.30 | 6.30 to 9.00 | < 4.82 | – | – | – | – | – | –
18 | Cc1cc(C(C)Nc2ccccc2C(=O)O)c2cc(N3CC(Cl)C3)n(C)c(=O)c2c1 (centres unmarked) [Example 55] | < 4.82 | 5.70 to 6.30 | 6.30 to 9.00 | < 4.82 | – | – | – | – | – | –
19 | Cc1cc(C(C)Nc2ccccc2C(=O)O)c2cc(N3CC4(C3)CC(F)(F)C4)n(C)c(=O)c2c1 (centres unmarked) [Example 56] | < 4.82 | 4.82 to 5.70 | 5.70 to 6.30 | < 4.82 | – | – | – | – | – | –
20 | Cc1cc(C(C)Nc2ccccc2C(=O)O)c2cc(N3CC4(CC(C(F)(F)F)C4)C3)n(C)c(=O)c2c1 (centres unmarked) [Example 57] | < 4.82 | 4.82 to 5.70 | 6.30 to 9.00 | < 4.82 | – | – | – | – | – | –
